# Test results taken from patent US20160213635A1, “COMPOSITIONS USEFUL IN THE PREVENTION OR TREATMENT OF SKIN CANCER” (GIULIANI S.P.A., priority 2013, published 2016).
# Experiments:
# [1] = test system: primary cultures of human keratinocytes, NHKs; assay: Cell viability after treatment with G01; format: cell-based; conditions: eight different concentrations, 48±2 h, three NHKs cultures
# Method: The study is performed on primary cultures of human keratinocytes, NHKs. The cells (three different cultures of keratinocytesNHKs) were plated in the specific culture medium and maintained in culture for 24±2 h to allow adhesion to the plate. The cells were treated with eight different concentrations of the compound of the invention […] under evaluation, diluted in the culture medium, for 48±2 h. The values of cell viability for each concentration tested, resulting from the spectrophotometric reading, were compared with the value obtained from the control.
# NHKs cells [2] = assay: Western Blot assessment of ability to repair DNA damage after pre-treatment with G01 and subsequent UV irradiation; format: cell-based, human; conditions: after UVB irradiation 25 mJ/cm^2, 6 h
# Method: The NHKs cells were plated in the specific culture medium and maintained in culture for 24±2 h to allow adhesion to the plate. Then, the keratinocytes were treated for 24±2 h with the compound of the invention G01, at concentrations of 60 μM and 90 μM. Subsequently, the plates identified as +UVA, +G01/UVA, +UVB, and +G01/UVB were respectively exposed, in the irradiation medium, to doses of UVA of 10 J/cm^2 and UVB of 25 mJ/cm^2, while the control plates (Ctr) and those treated only with G01 were maintained in the dark and at room temperature for a period of time equal to the irradiation time. The irradiation medium was then replaced with the culture medium. Based on the preliminary results obtained on a broader time range, a post-treatment time of 6 h was selected, after which the plates were processed for Western Blot protein determination.
# For each condition tested (treatment with G01 and/or UVA/UVB irradiation), the protein expression of the phosphorylated histone γH2AX, p53 and GADD45a (growth arrest and DNA damage response gene), known markers of DNA damage induced by UV radiation, was compared with the expression in the control cells (Ctr).
# NHKs cells [3] = assay: ELISA CPDs determination after pre-treatment with G01 and subsequent UVB irradiation; format: cell-based, human; conditions: pre-treatment 90 μM; UVB 80 mJ/cm^2; 6 h and 24 h
# Method: The NHKs cells were plated in the specific culture medium and maintained in culture for 24±2 h to allow adhesion to the plate. Then, the keratinocytes were treated for 24±2 h with the compound G01, in a concentration of 90 μM. Subsequently, the plates identified as +UVB and +G01/UVB were exposed, in the irradiation medium, to a UVB dose of 80 mJ/cm^2, while the control plates (Ctr) and those treated only with the compound under examination (G01) were maintained in the dark and at room temperature for a period of time equal to the irradiation time. The irradiation medium was then replaced with the culture medium. Based on the preliminary results obtained on a broader time range, post-treatment times of 6 h and 24 h were selected, after which the plates were processed according to the procedure described in the work instruction specific for the DNA extraction. The determination of the pyrimidine cyclobutane dimers, CPDs, was performed using a specific ELISA kit following the procedure described in the user manual.
# [4] = test system: primary cultures of human keratinocytes, NHKs; assay: Cell viability (incorporation of NR) after UV irradiation and subsequent treatment with G01; format: cell-based; conditions: post-treatment; UVA 10 J/cm^2, UVB 25 mJ/cm^2; particularly 48 h after irradiation; highest concentration tested 90 μM
# Method: The cells were plated in the specific culture medium and maintained in culture for 24±2 h to allow adhesion to the plate. The cells in the plates identified as +UVA and +UVB were respectively exposed, in the irradiation medium, to doses of UVA of 10 J/cm^2 and UVB of 25 mJ/cm^2, while the control plate (Ctr) was maintained in the dark and at room temperature for a period of time equal to the irradiation time. The irradiation medium was then replaced with the culture medium, containing the compound G01 in concentrations selected based on the cell viability results obtained after treatment with the same compound (see above). The cell viability was measured (incorporation of NR) at a time of 24±2 h and 48±2 h after the irradiation, in the absence and the presence of UVA/UVB irradiation and/or treatment with the compound of the invention G01. The cell viability values for each condition tested were compared with the value obtained from the control and plotted on a graph to highlight any differences between the various experimental conditions.
# NHKs cells [5] = assay: Flow cytometric (annexin V) assessment of apoptosis induced by UV irradiation and subsequent treatment with G01; format: cell-based, human; conditions: post-treatment 90 μM; UVA 25 J/cm^2, UVB 80 mJ/cm^2; 24 h
# Method: The NHKs cells were plated in the specific culture medium and maintained in culture for 24±2 h to allow adhesion to the plate. Each experimental condition was plated in duplicate. Subsequently, the plates identified as +UVA, +G01/UVA, +UVB, and +G01/UVB were respectively exposed, in the irradiation medium, to doses of UVA of 25 J/cm^2 and UVB of 80 mJ/cm^2, while the control plates (Ctr) and those treated only with the compound under examination (G01) were maintained in the dark and at room temperature for a period of time equal to the irradiation time. The irradiation medium was then replaced with the culture medium containing the compound G01 in a concentration of 90 μM. Based on the preliminary results obtained on a broader time range, a post-treatment time of 24 h was selected, after which the plates were processed according to the procedure given in the user manual of the specific kit for annexin V flow cytometric analysis. The positivity for annexin V in each condition tested (treatment with the compound of the invention under examination and/or UVA/UVBirradiation) was compared with the positivity in the control cells.
# NHKs cells [6] = assay: ELISA 8-OHdG determination after UVA irradiation and subsequent treatment with G01; format: cell-based, human; conditions: post-treatment 90 μM; UVA 10 J/cm^2; both post-treatment times 6 h and 24 h; vs cells only irradiated
# Method: The NHKs cells were plated in the specific culture medium and maintained in culture for 24±2 h to allow adhesion to the plate. Then, the plates identified as +UVA and +UVA/G01 post were respectively exposed, in the irradiation medium, to a UVA dose of 10 J/cm^2. The irradiation medium was then replaced with the culture medium containing the compound of the invention G01, in a concentration of 90 μM. Based on preliminary results obtained on a broader time range, post-treatment times of 6 h and 24 h were selected, after which the plates were processed according to the procedure described in the work instruction specific for the DNA extraction. The determination of 8-OHdG, marker of DNA oxidative damage induced by UVA, was performed using a specific ELISA kit following the procedure described in the user manual.
compound,measurement,setting,value
"C/C=C/C=C/C=C/C(=O)O [G01, 2,4,6-trans-octatrienoic acid]",cell viability (cellular toxicity) vs control,[1],absence of cellular toxicity
same,fraction of phosphorylated histone γH2AX,NHKs cells [2],reduced fraction
same,CPDs adducts (pyrimidine cyclobutane dimers),NHKs cells [3],promote the removal of CPDs adducts
same,cell viability after UVA/UVB irradiation,[4],significant protective action
same,apoptosis (positivity for annexin V) induced by UVA and UVB,NHKs cells [5],reduce the apoptosis
same,amount of 8-OHdG produced by UVA radiation,NHKs cells [6],significant reduction
